The target in test [1] is Human GPR35 (Homo sapiens, UniProt Q9HC97). Nature of the test: Beta-Arrestin Assay (Tango U2OS cells, LiveBLAzer-FRET B/G). The conditions noted are these: Human GPR35 expressing Tango U2OS cells, 5 hours treatment. It counts as cell-based. Here is the method: Human GPR35 expressing Tango U2OS cells were plated in 384-well format in clear bottom plates at a cell density of 10,000 cells/well and allowed to grow overnight. The next day, cells were treated with serially diluted test compounds for 5 hours. LiveBLAzer-FRET B/G (CCF4-AM) detection reagents were then added and cells were allowed to incubate for 2 hours before reading plates on a BioTek Cytation 5 plate reader. Zaprinast was used as a positive control for dose-response curves. In order to determine EC50 values, data were fit to a four-parameter dose-response curve.
Human GPR35 (Homo sapiens, UniProt Q9HC97), sequence (Q9HC97 whole entry): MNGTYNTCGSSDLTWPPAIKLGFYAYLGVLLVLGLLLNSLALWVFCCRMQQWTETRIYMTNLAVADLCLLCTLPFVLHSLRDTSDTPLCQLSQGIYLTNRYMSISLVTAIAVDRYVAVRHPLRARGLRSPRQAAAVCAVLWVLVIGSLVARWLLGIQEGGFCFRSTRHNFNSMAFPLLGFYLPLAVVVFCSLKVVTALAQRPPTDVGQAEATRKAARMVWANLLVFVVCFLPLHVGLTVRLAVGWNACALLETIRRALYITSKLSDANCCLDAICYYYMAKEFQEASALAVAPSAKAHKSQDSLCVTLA

For test [2], the target named is Human GPR35 (Homo sapiens, UniProt Q9HC97, S294R). Kind of test: Alternative Beta-Arrestin Assay (JumpIn 294R Tango U2OS cells, LiveBLAzer-FRET B/G). It counts as cell-based. The conditions noted are these: Human GPR35 expressing JumpIn 294R Tango U2OS cells, 5 hours treatment. Put shortly:
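U2OS Tango cells expressing human GPR35 S294R, plated overnight, exposed to serially diluted compounds for 5 hours. β-lactamase reporter read with LiveBLAzer-FRET B/G (CCF4-AM) after 2 h; EC50 from four-parameter fit, zaprinast as positive control.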

Human GPR35 (Homo sapiens, UniProt Q9HC97, S294R), sequence (Q9HC97 whole entry S294R): as the sequence (Q9HC97 whole entry) above, with S294R counted along it

With `CCOc1cc(-c2ccc(CC(=O)OC)cc2)ccc1-c1nc2[nH]nnc2c(=O)[nH]1` [Compound 114, Methyl 2-(3′-ethoxy-4′-(7-oxo-6,7-dihydro-3H-[1,2,3]triazolo[4,5-d]pyrimidin-5-yl)-[1,1′-biphenyl]-4-yl)acetate], the EC50 in test [1] and in test [2] was ≤ 10 µM in each case.

As to `CCOc1cc(-c2cnn(CC(=O)O)c2)ccc1-c1nc2[nH]nnc2c(=O)[nH]1` [Compound 127, 2-(4-(3-Ethoxy-4-(7-oxo-6,7-dihydro-3H-[1,2,3]triazolo[4,5-d]pyrimidin-5-yl)phenyl)-1H-pyrazol-1-yl)acetic acid], the EC50 in test [1] and in test [2] was ≤ 10 µM in each case.

For the molecule `CCOc1cc(-c2cccc(C(=O)O)c2)ccc1-c1nc2[nH]nnc2c(=O)[nH]1` [Compound 110, 3′-Ethoxy-4′-(7-oxo-6,7-dihydro-3H-[1,2,3]triazolo[4,5-d]pyrimidin-5-yl)-[1,1′-biphenyl]-3-carboxylic acid], the EC50 in test [1] and in test [2] was ≤ 10 µM throughout.

Turning to `CCOc1cc(-c2ccc(N)c(C(=O)O)c2)ccc1-c1nc2[nH]nnc2c(=O)[nH]1` [Compound 181, 4-amino-3′-ethoxy-4′-(7-oxo-6,7-dihydro-3H-[1,2,3]triazolo[4,5-d]pyrimidin-5-yl)-[1,1′-biphenyl]-3-carboxylic acid], the EC50 in test [1] and in test [2] was ≤ 10 µM each time.

For the molecule `CCOc1cc(Cc2cccc(C(=O)O)c2)ccc1-c1nc2[nH]nnc2c(=O)[nH]1` [Compound 176, 3-(3-ethoxy-4-(7-oxo-6,7-dihydro-3H-[1,2,3]triazolo[4,5-d]pyrimidin-5-yl)benzyl)benzoic acid], the EC50 in test [1] and in test [2] was ≤ 10 µM throughout.

In the case of `CCOc1cc(C(=O)NS(=O)(=O)N(C)C)ccc1-c1nc2[nH]nnc2c(=O)[nH]1` [Compound 152, N-(N,N-dimethylsulfamoyl)-3-ethoxy-4-(7-oxo-6,7-dihydro-3H-[1,2,3]triazolo[4,5-d]pyrimidin-5-yl)benzamide], the EC50 in test [1] and in test [2] was ≤ 10 µM in each case.

As for `CCOc1cc(NCCCC(=O)O)ccc1-c1nc2[nH]nnc2c(=O)[nH]1` [Compound 164, 4-((3-ethoxy-4-(7-oxo-6,7-dihydro-3H-[1,2,3]triazolo[4,5-d]pyrimidin-5-yl)phenyl)amino)butanoic acid], the EC50 in test [1] and in test [2] was ≤ 10 µM each time.

For `CCOc1cc(Cc2ccccc2C(=O)O)ccc1-c1nc2[nH]nnc2c(=O)[nH]1` [Compound 175, 2-(3-ethoxy-4-(7-oxo-6,7-dihydro-3H-[1,2,3]triazolo[4,5-d]pyrimidin-5-yl)benzyl)benzoic acid], the EC50 in test [1] and in test [2] was ≤ 10 µM in each case.

Regarding `CCOc1cc(-c2ccc(O)c(C(=O)O)c2)ccc1-c1nc2[nH]nnc2c(=O)[nH]1` [Compound 179, 3′-ethoxy-4-hydroxy-4′-(7-oxo-6,7-dihydro-3H-[1,2,3]triazolo[4,5-d]pyrimidin-5-yl)-[1,1′-biphenyl]-3-carboxylic acid], the EC50 in test [1] and in test [2] was ≤ 10 µM each time.

Consider `CCOc1cc(-c2cc(N)cc(C(=O)O)c2)ccc1-c1nc2[nH]nnc2c(=O)[nH]1` [Compound 123, 5-amino-3′-ethoxy-4′-(7-oxo-6,7-dihydro-3H-[1,2,3]triazolo[4,5-d]pyrimidin-5-yl)-[1,1′-biphenyl]-3-carboxylic acid], for which the concentration for a half-maximal effect (EC50) in test [1] and in test [2] was ≤ 10 µM throughout.

For the molecule `CCOc1cc(N2CC[C@H](C(=O)O)C2)ccc1-c1nc2[nH]nnc2c(=O)[nH]1` [Compound 166, (S)-1-(3-ethoxy-4-(7-oxo-6,7-dihydro-3H-[1,2,3]triazolo[4,5-d]pyrimidin-5-yl)phenyl)pyrrolidine-3-carboxylic acid], the half-maximal effective concentration (EC50) in test [1] and in test [2] was ≤ 10 µM each time.

As to `CCOc1cc(-c2c[nH]c(C(=O)O)c2)ccc1-c1nc2[nH]nnc2c(=O)[nH]1` [Compound 178, 4-(3-ethoxy-4-(7-oxo-6,7-dihydro-3H-[1,2,3]triazolo[4,5-d]pyrimidin-5-yl)phenyl)-1H-pyrrole-2-carboxylic acid], the EC50 in test [1] and in test [2] was ≤ 10 µM each time.

For the molecule `CCCOc1cc(-c2cccc(C(=O)O)c2)ccc1-c1nc2[nH]nnc2c(=O)[nH]1` [Compound 128, 4′-(7-Oxo-6,7-dihydro-3H-[1,2,3]triazolo[4,5-d]pyrimidin-5-yl)-3′-propoxy-[1,1′-biphenyl]-3-carboxylic acid], the EC50 in test [1] and in test [2] was ≤ 10 µM throughout.

As for `CCOc1cc(N)ccc1-c1nc2[nH]nnc2c(=O)[nH]1` [Compound 137, 5-(4-amino-2-ethoxyphenyl)-3,6-dihydro-7H-[1,2,3]triazolo[4,5-d]pyrimidin-7-one], the EC50 in test [1] and in test [2] was ≤ 10 µM each time.

Turning to `CCOc1cc(-c2noc(=O)[nH]2)ccc1-c1nc2[nH]nnc2c(=O)[nH]1` [Compound 150, 3-(3-ethoxy-4-(7-oxo-6,7-dihydro-3H-[1,2,3]triazolo[4,5-d]pyrimidin-5-yl)phenyl)-1,2,4-oxadiazol-5(4H)-one], the EC50 in test [1] and in test [2] was ≤ 10 µM in each case.

For the molecule `CCOc1cc(N2CCC[C@@H]2C(=O)O)ccc1-c1nc2[nH]nnc2c(=O)[nH]1` [Compound 163, (3-ethoxy-4-(7-oxo-6,7-dihydro-3H-[1,2,3]triazolo[4,5-d]pyrimidin-5-yl)phenyl)-D-proline], the concentration giving a half-maximal response (EC50) in test [1] and in test [2] was ≤ 10 µM in each case.

As for `CCOc1cc(Cc2ccc(C(=O)O)cc2)ccc1-c1nc2[nH]nnc2c(=O)[nH]1` [Compound 177, 4-(3-ethoxy-4-(7-oxo-6,7-dihydro-3H-[1,2,3]triazolo[4,5-d]pyrimidin-5-yl)benzyl)benzoic acid], the EC50 in test [1] and in test [2] was ≤ 10 µM in each case.

`CCOc1cc(-c2cccc(-c3nnn[nH]3)c2)ccc1-c1nc2[nH]nnc2c(=O)[nH]1` [Compound 153, 5-(3-ethoxy-3′-(1H-tetrazol-5-yl)-[1,1′-biphenyl]-4-yl)-3,6-dihydro-7H-[1,2,3]triazolo[4,5-d]pyrimidin-7-one]: the half-maximal effective concentration (EC50) in test [1] and in test [2] was ≤ 10 µM each time.

On to `CCOc1cc(-c2cccc(OCC(=O)O)c2)ccc1-c1nc2[nH]nnc2c(=O)[nH]1` [Compound 121, 2-((3′-Ethoxy-4′-(7-oxo-6,7-dihydro-3H-[1,2,3]triazolo[4,5-d]pyrimidin-5-yl)-[1,1′-biphenyl]-3-yl)oxy)acetic acid], for which the EC50 in test [1] and in test [2] was ≤ 10 µM each time.

As for `CCOc1cc(-c2cncc(C(=O)OC)c2)ccc1-c1nc2[nH]nnc2c(=O)[nH]1` [Compound 112, Methyl 5-(3-ethoxy-4-(7-oxo-6,7-dihydro-3H-[1,2,3]triazolo[4,5-d]pyrimidin-5-yl)phenyl)nicotinate], the concentration for a half-maximal effect (EC50) in test [1] and in test [2] was ≤ 10 µM in each case.

Take `CCOc1cc(C(=O)N2CCCC(C(=O)O)C2)ccc1-c1nc2[nH]nnc2c(=O)[nH]1` (centres unmarked) [Compound 172, 1-(3-ethoxy-4-(7-oxo-6,7-dihydro-3H-[1,2,3]triazolo[4,5-d]pyrimidin-5-yl)benzoyl)piperidine-3-carboxylic acid]: the figures for the EC50 in test [1] and in test [2] were ≤ 10 µM and 10 to 50 µM, respectively.

As for `CCOc1cc(-c2ccc(C(=O)O)s2)ccc1-c1nc2[nH]nnc2c(=O)[nH]1` [Compound 117, 5-(3-Ethoxy-4-(7-oxo-6,7-dihydro-3H-[1,2,3]triazolo[4,5-d]pyrimidin-5-yl)phenyl)thiophene-2-carboxylic acid], the EC50 in test [1] and in test [2] was ≤ 10 µM each time.

`CCOc1cc(-c2cc[nH]n2)ccc1-c1nc2nn[nH]c2c(=O)[nH]1` [Compound 131, 5-(2-Ethoxy-4-(1H-pyrazol-3-yl)phenyl)-1,6-dihydro-7H-[1,2,3]triazolo[4,5-d]pyrimidin-7-one]: the EC50 in test [1] and in test [2] was ≤ 10 µM throughout.

Regarding `CCOc1cc(C(=O)O)ccc1-c1nc2[nH]nnc2c(=O)[nH]1` [Compound 132, 3-Ethoxy-4-(7-oxo-6,7-dihydro-3H-[1,2,3]triazolo[4,5-d]pyrimidin-5-yl)benzoic acid], the EC50 in test [1] and in test [2] was ≤ 10 µM each time.

Regarding `CCOc1cc(-c2cc(N)cc(C(=O)OC)c2)ccc1-c1nc2[nH]nnc2c(=O)[nH]1` [Compound 122, Methyl 5-amino-3′-ethoxy-4′-(7-oxo-6,7-dihydro-3H-[1,2,3]triazolo[4,5-d]pyrimidin-5-yl)-[1,1′-biphenyl]-3-carboxylate], the half-maximal effective concentration (EC50) in test [1] and in test [2] was ≤ 10 µM throughout.

`CCOc1cc(CC(=O)O)ccc1-c1nc2[nH]nnc2c(=O)[nH]1` [Compound 146, 2-(3-ethoxy-4-(7-oxo-6,7-dihydro-3H-[1,2,3]triazolo[4,5-d]pyrimidin-5-yl)phenyl)acetic acid]: the EC50 in test [1] and in test [2] was ≤ 10 µM throughout.

In the case of `CCOc1cc(-c2ncccn2)ccc1-c1nc2[nH]nnc2c(=O)[nH]1` [Compound 103, 5-(2-Ethoxy-4-(pyrimidin-2-yl)phenyl)-3,6-dihydro-7H-[1,2,3]triazolo[4,5-d]pyrimidin-7-one], the half-maximal effective concentration (EC50) in test [1] and in test [2] was ≤ 10 µM in each case.

Consider `CCOc1cc(CO)ccc1-c1nc2[nH]nnc2c(=O)[nH]1` [Compound 145, 5-(2-ethoxy-4-(hydroxymethyl)phenyl)-3,6-dihydro-7H-[1,2,3]triazolo[4,5-d]pyrimidin-7-one], for which the EC50 in test [1] and in test [2] was ≤ 10 µM throughout.

As usually defined, the EC50 is the midpoint of the concentration-response curve.

For the origin of these results see US11053251B2, “GPR35 modulators” (Prometheus Biosciences, Inc., priority 2019, dated 2021).
